Laboratory results taken from patent US20220161456A1, “S[…] PRESERVATIVE COMPOSITION COMPRISING POLYMERIC BETAINE AND CARBAMATE” (Troy Corporation, priority 2019, published 2022).

Columns and labels:
Assay in all cases: ASTM D4445-10 fungal growth on dip-treated Radiata pine specimens
Assay type in all cases: cell-based
Details in all cases: rating 0 (No Growth) to 5 (Complete Growth), one month, 28° C.
[1] = test system: mixture of Aspergillus niger (ATCC #6275) and Penicillium funiculosum (ATCC #11797)
Experimental: (§1) Radiata pine lumber was machined to specimens with size of 7 mm by 20 mm in cross section and 70 mm long. Solutions prepared as described above were used to treat the machined Radiata pine specimens. The treatment was carried out in a 600 mL beaker. Two unused test pieces were placed on the bottom of the beaker, and the specimens, four in a layer, were placed on the previous layers until all the treatment replicates were included. The specimens were held down with a finger bearing down on a watch glass and submerged in treating solution for 15 seconds. After 15 seconds, the beaker was drained but with specimens still held down, and then was tightly covered with a piece of plastic sheet to prevent drying and was stored overnight. Similarly, untreated control specimens were treated with water.
(§2) One day after treatment, duplicate wood specimens from the same treatment group were tested according to ASTM D4445-10 methodology. The wood specimens were checked for inhibition against sapstain fungi and molds Trichoderma pseudokoningii (ATCC #26801), Aureobasidium pullulans (ATCC #9348), and a mixture of Aspergillus niger (ATCC #6275) and Penicillium funiculosum (ATCC #11797). This method is described below:
(§3) (1) Placed duplicate wood specimens on top of polyester mesh and laid on a stack of four (4) filter paper squares (approximately 2 inches by 2.5 inches) presoaked in 5 mL sterile DI water.
(§4) (2) Prepared fungal mixture from freshly grown slants of each test organism.
(§5) (3) Added 2 mL of DI water and 0.1% Tween 20 to the slant and inverted to mix.
(§6) (4) Poured the concentrate into a total volume of 16 mL.
(§7) (5) Enumerated the stock via hemocytometer and adjusted to […] with additional DI water.
(§8) (6) Inoculated wood specimens via applying 0.25 mL of one of the three separate fungal suspensions to the top of the wood and distributing evenly on the surface with an L-spreader.
(§9) (7) Placed inoculated wood specimens in a humidity chamber for one month at 95% or larger relative humidity and 28° C.
(§10) (8) Rated wood specimens with a rating from “0” (No Growth) to “5” (Complete Growth).
as §1, with “treat” for “treat the”
as §2, with “D4445-10(2019)” for “D4445-10”, “This method is described below:” left out

[2] = test system: Aureobasidium pullulans (ATCC #9348)
Experimental: as §1, §2, §3, §4, §5, §6, §7, §8, §9, §10
as §1, with “treat” for “treat the”
as §2, with “D4445-10(2019)” for “D4445-10”, “This method is described below:” left out

[3] = test system: Trichoderma pseudokoningii (ATCC #26801)
Experimental: as §1, §2, §3, §4, §5, §6, §7, §8, §9, §10
as §1, with “treat” for “treat the”
as §2, with “D4445-10(2019)” for “D4445-10”, “This method is described below:” left out

[4] = 2400 ppm treatment solution, Example 2, eight replicates
[5] = 2400 ppm treatment solution, Example 3, ten replicates
[6] = 4800 ppm treatment solution, Example 2, eight replicates

Compound: didecyl bis(hydroxyethyl) ammonium borate [DPAB]
- Average Scoring A.n. + P.f. [1, 4]: 5.0
- Average Scoring A.n. + P.f. [1, 5]: 2
- Average Scoring A.n. + P.f. [1, 6]: 4.9
- Average Scoring A.p. [2, 4]: 3.3
- Average Scoring A.p. [2, 5]: 3.6
- Average Scoring A.p. [2, 6]: 0.8
- Average Scoring T.p. [3, 4]: 2.5
- Average Scoring T.p. [3, 5]: 2
- Average Scoring T.p. [3, 6]: 2.0

Compound: CCCCNC(=O)OCC#CI [IPBC, 3-iodo-2-propynyl butyl carbamate]
- Average Scoring A.n. + P.f. [1, 4]: 0.0
- Average Scoring A.n. + P.f. [1, 5]: 2.1
- Average Scoring A.n. + P.f. [1, 6]: 0.0
- Average Scoring A.p. [2, 4]: 0.0
- Average Scoring A.p. [2, 5]: 0
- Average Scoring A.p. [2, 6]: 0.0
- Average Scoring T.p. [3, 4]: 2.6
- Average Scoring T.p. [3, 5]: 1.7
- Average Scoring T.p. [3, 6]: 2.8
